From the supplement of paper PMC10307832

Legend:
Experiment in all cases: relative viability (nuclei count vs DMSO), 5 days (fraction); higher = more cells survive
ABC-1 = tested on: ABC-1
Procedure, shortened: (§1)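 Each reported value is a median over duplicate plates. It expresses relative viability: treated-well nuclei count divided by vehicle-well nuclei count. Lung cancer cell lines in 1536-well plates were dosed by pin tool a day after seeding, alone with one drug or with a fixed anchor-drug dose plus five library-drug doses (not always all listed) in √10 steps, and nuclei were counted after 5 days.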

CAL-12T = tested on: CAL-12T
Procedure, shortened: as §1

COR-L 105 = tested on: COR-L 105
Procedure, shortened: as §1

EMC-BAC-2 = tested on: EMC-BAC-2
Procedure, shortened: as §1

EPLC-272H = tested on: EPLC-272H
Procedure, shortened: as §1

HCC-15 = tested on: HCC-15
Procedure, shortened: as §1

HCC-78 = tested on: HCC-78
Procedure, shortened: as §1

HOP-62 = tested on: HOP-62
Procedure, shortened: as §1

LXF-289 = tested on: LXF-289
Procedure, shortened: as §1

NCI-H1666 = tested on: NCI-H1666
Procedure, shortened: as §1

NCI-H1755 = tested on: NCI-H1755
Procedure, shortened: as §1

NCI-H1915 = tested on: NCI-H1915
Procedure, shortened: as §1

NCI-H1975 = tested on: NCI-H1975
Procedure, shortened: as §1

NCI-H2023 = tested on: NCI-H2023
Procedure, shortened: as §1

NCI-H2085 = tested on: NCI-H2085
Procedure, shortened: as §1

NCI-H2126 = tested on: NCI-H2126
Procedure, shortened: as §1

NCI-H3122 = tested on: NCI-H3122
Procedure, shortened: as §1

NCI-H322M = tested on: NCI-H322M
Procedure, shortened: as §1

NCI-H358 = tested on: NCI-H358
Procedure, shortened: as §1

NCI-H441 = tested on: NCI-H441
Procedure, shortened: as §1

UMC-11 = tested on: UMC-11
Procedure, shortened: as §1

Question: How did the relative viability (ABC-1; first compound 0.08 µM) turn out when COc1nc(C)cnc1NS(=O)(=O)c1cccnc1-c1ccc(-c2nnco2)cc1 [Zibotentan] + Cc1nc(NC(=O)N2CCC[C@H]2C(N)=O)sc1-c1ccnc(C(C)(C)C(F)(F)F)c1 [Alpelisib] (partner 2 µM) was run?
Answer: 1.1

Question: What about the relative viability (ABC-1; first compound 0.253 µM) of the same molecule?
Answer: 0.689

Question: What about the relative viability (ABC-1; first compound 0.8 µM) of the same molecule?
Answer: 1.11

Question: And the relative viability (ABC-1; first compound 2.53 µM)?
Answer: 1.07

Question: And the relative viability (CAL-12T; first compound 0.08 µM)?
Answer: 1.25

Question: What about the relative viability (CAL-12T; first compound 0.253 µM) of the same molecule?
Answer: 0.923

Question: And the relative viability (CAL-12T; first compound 0.8 µM)?
Answer: 1.33

Question: What about the relative viability (CAL-12T; first compound 2.53 µM) of the same molecule?
Answer: 1.23

Question: What about the relative viability (COR-L 105; first compound 0.08 µM) of the same molecule?
Answer: 1.13

Question: And the relative viability (COR-L 105; first compound 0.253 µM)?
Answer: 0.892

Question: What about the relative viability (COR-L 105; first compound 0.8 µM) of the same molecule?
Answer: 1.21

Question: And the relative viability (COR-L 105; first compound 2.53 µM)?
Answer: 0.93

Question: What about the relative viability (EMC-BAC-2; first compound 0.08 µM) of the same molecule?
Answer: 0.78

Question: And the relative viability (EMC-BAC-2; first compound 0.253 µM)?
Answer: 0.72

Question: What about the relative viability (EMC-BAC-2; first compound 0.8 µM) of the same molecule?
Answer: 0.714

Question: And the relative viability (EMC-BAC-2; first compound 2.53 µM)?
Answer: 0.782

Question: What about the relative viability (EPLC-272H; first compound 0.08 µM) of the same molecule?
Answer: 0.805

Question: What about the relative viability (EPLC-272H; first compound 0.253 µM) of the same molecule?
Answer: 0.908

Question: And the relative viability (EPLC-272H; first compound 0.8 µM)?
Answer: 0.979

Question: What about the relative viability (EPLC-272H; first compound 2.53 µM) of the same molecule?
Answer: 0.943

Question: What about the relative viability (HCC-15; first compound 0.08 µM) of the same molecule?
Answer: 0.954

Question: And the relative viability (HCC-15; first compound 0.253 µM)?
Answer: 0.884

Question: What about the relative viability (HCC-15; first compound 0.8 µM) of the same molecule?
Answer: 0.869

Question: And the relative viability (HCC-15; first compound 2.53 µM)?
Answer: 0.844

Question: And the relative viability (HCC-78; first compound 0.08 µM)?
Answer: 0.342

Question: And the relative viability (HCC-78; first compound 0.253 µM)?
Answer: 0.342

Question: What about the relative viability (HCC-78; first compound 0.8 µM) of the same molecule?
Answer: 0.23

Question: And the relative viability (HCC-78; first compound 2.53 µM)?
Answer: 0.374

Question: And the relative viability (HOP-62; first compound 0.08 µM)?
Answer: 1.01

Question: What about the relative viability (HOP-62; first compound 0.253 µM) of the same molecule?
Answer: 1.03

Question: What about the relative viability (HOP-62; first compound 0.8 µM) of the same molecule?
Answer: 1.12

Question: And the relative viability (HOP-62; first compound 2.53 µM)?
Answer: 0.911

Question: What about the relative viability (LXF-289; first compound 0.08 µM) of the same molecule?
Answer: 1.03

Question: And the relative viability (LXF-289; first compound 0.253 µM)?
Answer: 1.04

Question: What about the relative viability (LXF-289; first compound 0.8 µM) of the same molecule?
Answer: 1.11

Question: And the relative viability (LXF-289; first compound 2.53 µM)?
Answer: 1.09

Question: And the relative viability (NCI-H1666; first compound 0.08 µM)?
Answer: 1.12

Question: What about the relative viability (NCI-H1666; first compound 0.253 µM) of the same molecule?
Answer: 0.724

Question: And the relative viability (NCI-H1666; first compound 0.8 µM)?
Answer: 1.18

Question: And the relative viability (NCI-H1666; first compound 2.53 µM)?
Answer: 0.993

Question: What about the relative viability (NCI-H1755; first compound 0.08 µM) of the same molecule?
Answer: 0.887

Question: And the relative viability (NCI-H1755; first compound 0.253 µM)?
Answer: 0.911

Question: And the relative viability (NCI-H1755; first compound 0.8 µM)?
Answer: 0.937

Question: And the relative viability (NCI-H1755; first compound 2.53 µM)?
Answer: 0.94

Question: And the relative viability (NCI-H1915; first compound 0.08 µM)?
Answer: 1.14

Question: And the relative viability (NCI-H1915; first compound 0.253 µM)?
Answer: 1.1

Question: What about the relative viability (NCI-H1915; first compound 0.8 µM) of the same molecule?
Answer: 1.09

Question: What about the relative viability (NCI-H1915; first compound 2.53 µM) of the same molecule?
Answer: 1.03

Question: What about the relative viability (NCI-H1975; first compound 0.08 µM) of the same molecule?
Answer: 0.635

Question: And the relative viability (NCI-H1975; first compound 0.253 µM)?
Answer: 0.548

Question: What about the relative viability (NCI-H1975; first compound 0.8 µM) of the same molecule?
Answer: 0.642

Question: And the relative viability (NCI-H1975; first compound 2.53 µM)?
Answer: 0.585

Question: And the relative viability (NCI-H2023; first compound 0.08 µM)?
Answer: 0.632

Question: What about the relative viability (NCI-H2023; first compound 0.253 µM) of the same molecule?
Answer: 0.485

Question: And the relative viability (NCI-H2023; first compound 0.8 µM)?
Answer: 0.658

Question: And the relative viability (NCI-H2023; first compound 2.53 µM)?
Answer: 0.591

Question: What about the relative viability (NCI-H2085; first compound 0.08 µM) of the same molecule?
Answer: 0.93

Question: What about the relative viability (NCI-H2085; first compound 0.253 µM) of the same molecule?
Answer: 0.939

Question: And the relative viability (NCI-H2085; first compound 0.8 µM)?
Answer: 1.06

Question: What about the relative viability (NCI-H2085; first compound 2.53 µM) of the same molecule?
Answer: 0.932

Question: What about the relative viability (NCI-H2126; first compound 0.08 µM) of the same molecule?
Answer: 0.827

Question: What about the relative viability (NCI-H2126; first compound 0.253 µM) of the same molecule?
Answer: 0.755

Question: What about the relative viability (NCI-H2126; first compound 0.8 µM) of the same molecule?
Answer: 0.726

Question: And the relative viability (NCI-H2126; first compound 2.53 µM)?
Answer: 0.762

Question: What about the relative viability (NCI-H3122; first compound 0.08 µM) of the same molecule?
Answer: 0.801

Question: And the relative viability (NCI-H3122; first compound 0.253 µM)?
Answer: 0.773

Question: What about the relative viability (NCI-H3122; first compound 0.8 µM) of the same molecule?
Answer: 0.76

Question: What about the relative viability (NCI-H3122; first compound 2.53 µM) of the same molecule?
Answer: 0.822

Question: And the relative viability (NCI-H322M; first compound 0.08 µM)?
Answer: 0.692

Question: What about the relative viability (NCI-H322M; first compound 0.253 µM) of the same molecule?
Answer: 0.704

Question: What about the relative viability (NCI-H322M; first compound 0.8 µM) of the same molecule?
Answer: 0.719

Question: What about the relative viability (NCI-H322M; first compound 2.53 µM) of the same molecule?
Answer: 0.905

Question: And the relative viability (NCI-H358; first compound 0.08 µM)?
Answer: 1

Question: And the relative viability (NCI-H358; first compound 0.8 µM)?
Answer: 0.891

Question: And the relative viability (NCI-H358; first compound 2.53 µM)?
Answer: 0.848

Question: What about the relative viability (NCI-H441; first compound 0.08 µM) of the same molecule?
Answer: 0.757

Question: What about the relative viability (NCI-H441; first compound 0.8 µM) of the same molecule?
Answer: 0.776

Question: What about the relative viability (NCI-H441; first compound 2.53 µM) of the same molecule?
Answer: 0.779

Question: And the relative viability (UMC-11; first compound 0.08 µM)?
Answer: 0.861

Question: And the relative viability (UMC-11; first compound 0.253 µM)?
Answer: 0.961

Question: What about the relative viability (UMC-11; first compound 0.8 µM) of the same molecule?
Answer: 0.925

Question: What about the relative viability (UMC-11; first compound 2.53 µM) of the same molecule?
Answer: 0.971
